Reference: US8338482B2, “Modulating notch1 signaling pathway for treating neuroendocrine tumors” (Wisconsin Alumni Research Foundation, priority 2007, dated 2012)

Assays:
[1] = tested on: Notch1; assay: CBF1 binding site luciferase reporter assay; type: cell-based, human; conditions: DAPT 50 μM pretreatment 45 minutes, then 4 mM VPA
Protocol: Luciferase Reporter Assays GI carcinoid tumor cells were transiently transfected with luciferase constructs as previously described (Kunnimalaiyaan, M. et al., Conservation of the Notch1 signaling pathway in gastrointestinal carcinoid cells A J Physiol Gastrointest Liver Physiol 2005; 289:G636-642). Wild-type (4xwtCBF1Luc; 2 μg) or mutant (4xmutCBF1Luc; 2 μg) CBF1-luciferase reporter plasmids were co-transfected with CMV-β-gal (0.5 μg) (Hsieh J J et al., Truncated Mammalian Notch1 Activates CBF1/RBPJk-Repressed Genes by a Mechanism Resembling That of Epstein-Barr Virus EBNA2. Mol Cell Biol 1996; 16:952-959). In experiments with the γ-secretase inhibitor, N-[N-(3,5-difluorophenacetyl)-L-alanyl]-S-phenylglycine t-butyl ester (DAPT; EMD Biosciences, Darmstadt, Germany), to inhibit Notch1 cleavage and activation, cells were pretreated for 45 minutes with DAPT (50 μM) then treated with 4 mM VPA. […] Luciferase levels were measured using a Monolight 2010 Luminometer (Analytical Luminescence Laboratory, San Diego, Calif.). […]

[2] = tested on: MEK; assay: MEK inhibitors and Notch1-mediated hormone suppression; type: cell-based, human; conditions: PD098059 25-50 uM or U0126 5-20 uM pre-treatment
Protocol: 1) MEK inhibitors. BON, BON-Notch1, H727, H727-Notch1, TT, and TT-Notch1 cells are pre-treated with either PD098059 (25-50 uM) or U0126 (5-20 uM) (both well-characterized MEK inhibitors) (Sippel R S, et al., Am J Physiol Gastrointest Liver Physiol 2003; 285:G245-G254; Sippel R S, et al., Surgery 2003; 134:866-871), alone or in combination, followed by addition of control or doxycycline (1 μg) for 24, 48, and 96 hours. Cells are then analyzed with the following methods.
2) Confirmation of MEK inhibition. To confirm MEK inhibition after treatment with PD098059 and U0126, cellular extracts are analyzed by Western blots utilizing antibodies against MEK, phospho-MEK, ERK1/2, and phospho-ERK1/2. MAPK in vitro kinase assay with a commercially available kit (Cell Signal Technology) is used to confirm blockade of MEK activity.
3) hASH1 and NE marker expression. To determine if MEK inhibition blocks Notch1-mediated NE marker suppression, cellular extracts are analyzed using western blots with hASH1, chromogranin A, synaptophysin, and neuron-specific enolase, and serotonin or calcionin secretion will be assessed using an ELISA assay, as described above.

[3] = tested on: BON human GI carcinoid cancer cells; assay: Western blot analysis of GI carcinoid cells; type: cell-based
Protocol: Cell Culture BON human GI carcinoid cancer cells, kindly provided by Drs. B. Mark Evers and Courtney M. Townsend, Jr.
Total protein concentrations were quantified with a bicinchoninic acid assay kit (Pierce Biotechnology, Rockford, Ill., USA). Denatured cellular extracts were resolved by SDS-PAGE, transferred to nitrocellulose membranes (Schleicher and Schuell, Keene, N.H., USA), blocked in milk, and incubated with appropriate antibodies. The antibody dilutions were: 1:1,000 for Notch1 (Santa Cruz Biotechnology, Santa Cruz, Calif., USA), mammalian achaete-scute homolog 1 (ASCL1; BD Biosciences, San Diego, Calif., USA), chromogranin A (Zymed Laboratories, San Francisco, Calif., USA), and cyclin D1 (Cell Signaling Technology, Danvers, Mass., USA), 1:2,000 for p21 (Cell Signaling Technology) and p27 (Santa Cruz Biotechnology), and 1:10,000 for glyceraldehyde-3-phosphate dehydrogenase (G3PDH; Trevigen, Gaithersburg, Md., USA). Horseradish peroxidase conjugated goat anti-rabbit or goat anti-mouse secondary antibodies (Pierce Biotechnology) were used depending on the source of the primary antibody. For visualization of the protein signal, Immunstar (Bio-Rad Laboratories, Hercules, Calif., USA) or SuperSignal West Femto (Pierce Biotechnology) kits were used per the manufacturer's instructions.
Cell Culture BON human gastrointestinal (GI) carcinoid tumor cells, kindly provided by Drs. B. Mark Evers and Courtney M. Townsend, Jr.
Total protein concentrations were quantified with a bicinchoninic acid assay kit (Pierce Biotechnology, Rockford, Ill.). Denatured cellular extracts were resolved by SDS-PAGE, transferred onto nitrocellulose membranes (Schleicher and Schuell, Keene, N H), blocked in milk, and incubated with appropriate antibodies. The antibody dilutions were: 1:1,000 for Notch1 (Santa Cruz Biotechnology, Santa Cruz, Calif.), mammalian achaete-scute homolog 1 (ASCL1; BD Biosciences, San Diego, Calif.), chromogranin A (Zymed Laboratories, San Francisco, Calif.), and cyclin D1 (Cell Signaling Technology, Danvers, Mass.), 1:2,000 for p21 (Cell Signaling Technology) and p27 (Santa Cruz Biotechnology), and 1:10,000 for glyceraldehyde-3-phosphate dehydrogenase (G3PDH; Trevigen, Gaithersburg, Md.). Horseradish peroxidase conjugated goat anti-rabbit or goat anti-mouse secondary antibodies (Pierce Biotechnology) were used depending on the source of the primary antibody. For visualization of the protein signal, Immunstar (Bio-Rad Laboratories, Hercules, Calif.) or SuperSignal West Femto (Pierce Biotechnology) kits were used per the manufacturer's instructions.

[4] = tested on: H727 human lung carcinoid cancer cells; assay: Western blot analysis of pulmonary carcinoid cells; type: cell-based
[5] = tested on: BON human GI carcinoid cancer cells; assay: MTT cell proliferation assay, GI carcinoid cells; type: cell-based
Source text: (§1) Cell Culture BON human GI carcinoid cancer cells, kindly provided by Drs. B. Mark Evers and Courtney M. Townsend, Jr. (University of Texas Medical Branch, Galveston, Tex., USA), and H727 human lung carcinoid cancer cells (American Type Tissue Collection, Manassas, Va., USA) were maintained as previously described (Sippel, R S et al., Raf-1 Activation Suppresses neuroendocrine marker and hormone levels in human gastrointestinal carcinoid cells. Am J Physiol Gastrointest Liver Physiol. 2003 August; 285(2):G245-54, Van Gompel J J et al., ZM336372, A Raf-1 Activator, Suppresses Growth and Neuroendocrine Hormone Levels in Carcinoid Tumor Cells. Mol Cancer Ther. 2005 June; 4(6):910-7)
(§2) Cell Proliferation Assay Carcinoid cancer cell proliferation was measured by the MTT (thiazolyl blue tetrazolium bromide; Sigma-Aldrich, St. Louis, Mo., USA) rapid calorimetric assay as previously described (Van Gompel J J et al., ZM336372, A Raf-1 Activator, Suppresses Growth and Neuroendocrine Hormone Levels in Carcinoid Tumor Cells. Mol Cancer Ther. 2005 June; 4(6):910-7). Briefly, cells were seeded in quadruplicate on 24-well plates and incubated for 24 hours to allow cell attachment. The cells were then treated with SBHA (Sigma-Aldrich) in concentrations of 0 to 50 μM and incubated for up to 6 days. The MTT assay was performed by replacing the standard medium with 250 μL of serum-free medium containing MTT (0.5 mg/mL) and incubated at 37° C. for 3 hours. After incubation, 750 μL of dimethyl sulfoxide (Sigma-Aldrich) was added to each well and mixed thoroughly. The plates were then measured at 540 nm using a spectrophotometer (μQuant; Bio-Tek Instruments, Winooski, Vt., USA).
Cell Culture BON human gastrointestinal (GI) carcinoid tumor cells, kindly provided by Drs. B. Mark Evers and Courtney M. Townsend, Jr. […]
(§3) Cell Proliferation Assay Carcinoid tumor cell proliferation was measured by the MTT (methylthiazolyldiphenyl-tetrazolium bromide; Sigma-Aldrich, St. Louis, Mo.) rapid colorimetric assay as previously described (Van Gompel J J et al., ZM336372, A Raf-1 Activator, Suppresses Growth and Neuroendocrine Hormone Levels in Carcinoid Tumor Cells. Mol Cancer Ther 2005; 4:910-917). […] The plates were then measured at 540 nm using a spectrophotometer (μQuant; Bio-Tek Instruments, Winooski, Vt.).

[6] = tested on: H727 human lung carcinoid cancer cells; assay: MTT cell proliferation assay, pulmonary carcinoid cells; type: cell-based; conditions: up to 6 days
Source text: as §1
as §2, with “After incubation, 750 μL of dimethyl sulfoxide (Sigma-Aldrich) was added to each well and mixed thoroughly.” left out, “USA). […]” for “USA).”
as §3

[7] = tested on: Human MTC TT cells; assay: Western blotting of medullary thyroid cancer cells; type: cell-based; conditions: concentrations up to 25 μM
Protocol: (§4) Human MTC TT cells were treated with SBHA in concentrations up to 25 μM and analyzed by Western blotting for evidence of Notch1 pathway activation and changes in neuroendocrine markers. MTT assay was used to measure cell viability. Finally mechanism of growth inhibition was analyzed by Western blotting.

[8] = tested on: Human MTC TT cells; assay: MTT cell viability assay, medullary thyroid cancer cells; type: cell-based; conditions: concentrations up to 25 μM
Protocol: as §4

[9] = tested on: carcinoid tumor cells; conditions: cited from earlier work
[10] = tested on: hASH1; conditions: small cell lung cancer cells; cited from earlier work

## C[C@H](NC(=O)Cc1cc(F)cc(F)c1)C(=O)N[C@H](C(=O)OC(C)(C)C)c1ccccc1 [DAPT, N-[N-(3,5-difluorophenacetyl)-L-alanyl]-S-phenylglycine t-butyl ester]
[1]
  effect of VPA on CBF1 binding: blocked the effect of VPA on CBF1 binding

## COc1cccc(-c2cc(=O)c3ccccc3o2)c1N [PD098059]
[2]
  Notch1-mediated hormone suppression: block

## O=C(CCCCCCC(=O)Nc1ccccc1)NO [SAHA, suberoylanilide hydroxamic acid]
[3]; 30 μM, 2 days
  ASCL1 protein: undetectable level
[3]; SBHA/SAHA treatment, 48 hours
  ASCL1 protein: dose-dependent decrease
[3]; SBHA/SAHA, 2 days of treatment
  chromogranin A level: only modest inhibition
[4]; 50 μM, 2 days
  chromogranin A level: complete suppression
[4]; 48 hours
  concentrations at which significant Notch1 induction was seen: 20 to 30 µM
[4]; SBHA/SAHA treatment, 48 hours
  ASCL1 protein: dose-dependent decrease

## O=C(CCCCCCC(=O)NO)NO [SBHA, suberic bishydroxamic acid]
[3]; 48 hours, concentrations as low as
  concentration resulting in induction of full-length Notch1 and Notch1 intracellular domain (NICD): 5 µM
[3]; SBHA, 48 hours
  levels of cyclin D1: decreased levels
  levels of cyclin-dependent kinase inhibitors p21 and p27: increased levels
[4]; SBHA, 48 hours
  levels of cyclin D1: decreased levels
  levels of cyclin-dependent kinase inhibitors p21 and p27: increased levels
[5]; SBHA 0 to 50 μM, up to 6 days
  cell proliferation: profound dose-dependent inhibition
[5]; after 4 days of exposure
  concentration giving significant growth inhibition: 5 µM
[6]; SBHA 0 to 50 μM
  cell growth: dose-dependent growth suppression
[6]
  concentrations that produced growth inhibition: 20 to 50 µM
[7]
  ASCL1: concomitant decrease
  active form of Notch1: dose-dependent induction
  chromogranin A: decrease
  cleaved poly ADP-ribose polymerase (PARP) and caspase-3: increase in protein levels
[8]
  cell viability: dose-dependant decrease

## N#CC(=C(/N)Sc1ccccc1N)/C(C#N)=C(\N)Sc1ccccc1N [U0126]
[2]
  Notch1-mediated hormone suppression: block

## CCCC(=O)[O-].[Na+] [sodium butyrate]
[9]
  cyclin D1: concomitant downregulation
  p21 and p27: increase

## CC(/C=C/C(=O)NO)=C\[C@@H](C)C(=O)c1ccc(N(C)C)cc1 [trichostatin A]
[9]
  cyclin D1: concomitant downregulation
  p21 and p27: increase

## c5p25: hASH1 anti-sense oligonucleotide 5′-UCCUACUAAGGCUGC-3′ (SEQ ID NO: 2) (listed as RNA, chemistry not given here)
[10]
  hASH1 expression: minimal hASH1 inhibitory activity

## c5p1476: hASH1 anti-sense oligonucleotide 5′-GGAGCCCACUGCUUU-3′ (SEQ ID NO: 1), directed at the hASH1 3′UTR (listed as RNA, chemistry not given here)
[10]
  hASH1 expression: very potent inhibitor

## c5pMiss1: missense oligonucleotide 5′-GCUACAUCUGGUCGC-3′ (SEQ ID NO: 3) (listed as RNA, chemistry not given here)
[10]
  hASH1 expression: no affect

## c5pMiss2: missense oligonucleotide 5′-CACUGAUGCACCUGU-3′ (SEQ ID NO: 4) (listed as RNA, chemistry not given here)
[10]
  hASH1 expression: no affect
